Entries after “also recorded” stand apart in the source; their conditions may differ.
Legend:
RH41^shNEU1 cells = test: DOXO dose response, apoptotic response (cleaved PARP immunoblot); assay type: cell-based, human; conditions: compared with corresponding unmodified cells
Protocol: (§1) Finally, we generated DOXO dose response curves in both parental cell lines and the modified lines to examine the differences in their apoptotic responses. Immunoblots of the cleaved poly (ADP-ribose) polymerase (PARP), a canonical apoptotic marker, were used for this purpose (data not shown).
(§2) RH30 cells were transduced with the pBABE-puro retroviral vector (AddGene), either unmodified or containing the human NEU1 cDNA. Transduced cells were selected with puromycin (2 μg/mL), according to the predetermined sensitivity of the cell line, and were maintained in 0.5 μg/mL selection medium. RH41 cells were transfected with a panel of NEU1 shRNA plasmids (RHS4533-NM000434, Open Biosystems) or the accompanying empty vector control. The cells were selected with puromycin and maintained under selection medium.

RH30^NEU1 cells = test: as above; assay type: cell-based, human; conditions: compared with unmodified controls
Protocol: as §1, §2

RH41 cells = test: Doxorubicin exposure, apoptotic response (cleaved PARP immunoblot); assay type: cell-based, human; conditions: parental RH41 cells, high NEU1
RH30 cells = test: Doxorubicin efflux assay; assay type: cell-based, human; conditions: 3 μg/mL DOXO for 2 hours, then DOXO-free medium for 2 hours
Protocol: Cells were plated and maintained at 50% confluency. The next day, they were treated with medium containing 3 μg/mL DOXO for 2 hours. Treated cells were then washed 3 times with PBS and cultured in DOXO-free medium for an additional 2 hours, to allow efflux of the drug into fresh medium. The conditioned medium was then centrifuged at 1000 rpm […] for 5 minutes and a 500 μL aliquot was spun through an ULTRAFREE-MC 0.1 μm Eppendorf centrifugal filter (Millipore) to capture the effluxed drug. The filter was then placed on a microscopic slide and images of the red fluorescence filter were taken on a Nikon Cl microscope.

SKNEP1 cells = test: DOXO response of Ewing sarcoma cell line; assay type: cell-based; conditions: low-NEU1 cells
From the text: (§3) We, therefore, characterized other tumor cell lines, in terms of their invasive potential and NEU1 status. We chose the Ewing sarcoma cell lines, EW8 and SKNEP1, for their divergent NEU1 levels. Similar to the RMS cell lines, the low-NEU1 SKNEP1 cells accumulated oversialylated LAMP1, were resistant to DOXO, and more successfully invaded matrigel and peritoneal basement membranes than did the high-NEU1 DOXO-sensitive EW8 cells (data not shown). We also analyzed the colon carcinoma cell lines, SW480 and SW620, because of their well-characterized derivation (Leibovitz et al., 1976): SW480 cells are from a primary colon carcinoma; SW620 cells are from a metastatic recurrence. […] This was also paralleled by a drastic increase in LAMP1 levels compared to that in SW480 (data not shown).

EW8 cells = test: DOXO response of Ewing sarcoma cell line; assay type: cell-based; conditions: high-NEU1 cells
From the text: as §3

SMILES: COc1cccc2c1C(=O)c1c(O)c3c(c(O)c1C2=O)C[C@@](O)(C(=O)CO)C[C@@H]3O[C@H]1C[C@H](N)[C@H](O)[C@H](C)O1 [doxorubicin]
- apoptotic response to DOXO (RH41^shNEU1 cells): more resistant to apoptosis
- apoptotic response to DOXO (RH30^NEU1 cells): more sensitive
- response to doxorubicin (apoptosis) (RH41 cells): highly susceptible; also recorded: readily apoptosed
- efflux of DOXO into culture medium (red fluorescence) (RH30 cells): released from these cells
- response to DOXO (SKNEP1 cells): resistant
- response to DOXO (EW8 cells): sensitive

From patent publication US12640251B2, “Methods of treating dementia associated with alzheimer's disease with protective protein/cathepsin A (PPCA)” (St. Jude Children's Research Hospital, priority 2011, dated 2026)
